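Where inhibition never reached the appropriate level, the endpoint shown equals the highest concentration tested. Otherwise, values were interpolated linearly from a five-concentration, 48-hour dose response in 96-well plates. TGI: total growth inhibition.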
Legend:
Experiment in all cases: NCI-60 cell line screen, 48 h
[1] = test system: IGROV1 ovarian
[2] = test system: SNB-75 CNS
[3] = test system: NCI-H522 lung
[4] = test system: SK-MEL-2 melanoma
[5] = test system: HOP-92 NSCLC
[6] = test system: SF-295 CNS
[7] = test system: HL-60(TB) leukemia
[8] = test system: SNB-19 CNS
[9] = test system: SF-268 CNS
[10] = test system: RPMI-8226 leukemia
[11] = test system: LXFL 529 NSCLC
[12] = test system: SK-MEL-5 melanoma
[13] = test system: SN12C renal
[14] = test system: MOLT-4 leukemia
[15] = test system: DMS 114 small cell lung
[16] = test system: KM12 colon
[17] = test system: COLO 205 colon
[18] = test system: UO-31 renal
[19] = test system: OVCAR-8 ovarian
[20] = test system: TK-10 renal
[21] = test system: RXF 393 renal
[22] = test system: NCI-H23 lung
[23] = test system: HCC-2998 colon
[24] = test system: ACHN renal
[25] = test system: SNB-78 CNS
[26] = test system: NCI-H460 lung
[27] = test system: NCI-H226 lung
[28] = test system: M19-MEL melanoma
[29] = test system: OVCAR-3 ovarian
[30] = test system: UACC-257 melanoma
[31] = test system: HCT-116 colon
[32] = test system: SK-MEL-28 melanoma
[33] = test system: EKVX NSCLC
[34] = test system: DLD-1 colon
[35] = test system: SF-539 CNS
[36] = test system: CAKI-1 renal
[37] = test system: 786-0 renal
[38] = test system: A549 NSCLC
[39] = test system: SW-620 colon
[40] = test system: K-562 leukemia
[41] = test system: CCRF-CEM leukemia
[42] = test system: U251 CNS
[43] = test system: SK-OV-3 ovarian
[44] = test system: DMS 273 small cell lung
[45] = test system: MALME-3M melanoma
[46] = test system: HT29 colon
[47] = test system: UACC-62 melanoma
[48] = test system: A498 renal
[49] = test system: SR leukemia
[50] = test system: OVCAR-5 ovarian
[51] = test system: HOP-62 NSCLC
[52] = test system: HCT-15 colon
[53] = test system: OVCAR-4 ovarian
[54] = test system: LOX IMVI melanoma
[55] = test system: KM20L2 colon
[56] = test system: M14 melanoma
[57] = test system: NCI/ADR-RES ovarian
[58] = test system: MDA-MB-231 breast
[59] = test system: HS 578T breast
[60] = test system: PC-3 prostate
[61] = test system: BT-549 breast
[62] = test system: MDA-N
[63] = test system: T-47D breast
[64] = test system: MDA-MB-435
[65] = test system: DU-145 prostate
[66] = test system: MCF7 breast

Measured: TGI

ClCCC[Si]12OCCN(CCO1)CCO2
not listed: [51] | [52] | [53] | [54] | [55] | [56] | [57] | [58] | [59] | [60] | [61] | [62] | [63] | [64] | [65] | [66]
> 100 µM: all other assays above

CC(C)C1CNC2N1C(=O)C2(C)OCc1ccccc1 (stereo unspecified)
not listed: [3] | [5] | [16] | [25] | [36] | [43] | [50] | [57] | [58] | [59] | [60] | [61] | [62] | [63] | [64] | [65] | [66]
> 100 µM: all other assays above

Cn1c(=O)c2nc3c4ccccc4c(=O)n(C)c3nc2n(C)c1=O
not listed: [3] | [7] | [26] | [34] | [36] | [41] | [44] | [48] | [51] | [53] | [54] | [56] | [57] | [58] | [59] | [60] | [61] | [62] | [63] | [64] | [65] | [66]
> 100 µM: all other assays above

CCOC(=O)/C=C(\C(=O)OCC)n1ccc(=O)n(Cc2cnnn2COCCOC(C)=O)c1=O
15.3 µM: [37]
25.2 µM: [32]
14.5 µM: [21]
32 µM: [50]
> 40.7 µM: [54]
10.3 µM: [14]
61.6 µM: [59]
21.4 µM: [66]
33.4 µM: [23]
27.5 µM: [63]
> 42 µM: [10]
2.16 µM: [5]
36.4 µM: [9]
4.36 µM: [17]
33.1 µM: [22]
22.3 µM: [61]
35 µM: [58]
> 41.3 µM: [52]
43.4 µM: [38]
27.3 µM: [19]
37.7 µM: [65]
43.2 µM: [27]
33 µM: [62]
> 31.2 µM: [49]
10.2 µM: [24]
31 µM: [47]
41.3 µM: [48]
5.66 µM: [35]
4.53 µM: [41]
38.5 µM: [51] | [4]
32.6 µM: [33] | [42]
3.53 µM: [3]
> 66.4 µM: [8]
33.7 µM: [60]
32.1 µM: [16]
30.8 µM: [30]
5.93 µM: [39]
36.7 µM: [1]
4.34 µM: [45]
41.7 µM: [31]
2.04 µM: [7]
36.2 µM: [13]
40.1 µM: [2]
12.6 µM: [20]
54.8 µM: [53]
22.5 µM: [64]
54.3 µM: [12]
7.62 µM: [36]
> 66.6 µM: [6]
> 100 µM: [40] | [43]
25.1 µM: [29]
30.5 µM: [18]
31.7 µM: [56]
28.1 µM: [46]
34.1 µM: [26]
58.7 µM: [57]

COc1ccc(-c2cc(-c3ccccc3)nc(/N=C\c3ccccc3)n2)c(O)c1
> 24.1 µM: [49]
> 35.4 µM: [7]
8.39 µM: [36]
5.71 µM: [10]
not listed: [11] | [15] | [25] | [28] | [34] | [44] | [55]
> 100 µM: all other assays above
